Data as given in article PMC10112504, “Novel 4-thiophenyl-pyrazole, pyridine, and pyrimidine derivatives as potential antitumor candidates targeting both EGFR and VEGFR-2; design, synthesis, biological evaluations, and in silico studies” (RSC Advances, 2023).

Assays:
VEGFR-2 = VEGFR-2 (Homo sapiens, UniProt P35968); test: VEGFR-2 inhibitory activity, homogeneous luminescence release assay; type: biochemical; conditions: reference sorafenib; read-out: VEGFR-2 inhibition IC50
Description: […]. Briefly, these μM inhibitory concentrations recommend greatly the proposed rationale design for the investigated compounds to act as promising dual EGFR/VEGFR-2 inhibitors.

P. aeuroginosa = test: Antibacterial activity, inhibition zone approach; type: cell-based, Pseudomonas aeuroginosa; conditions: for P. aeuroginosa Diameter of inhibition zone (mm): Gram-negative bacteria; for antimicrobial activity with P. aeuroginosa, in words: authors' grading of Table 2 values, key not given; for P. aeuroginosa % Activity index: gentamicin = 100
B. subtilis = test: Antibacterial activity, inhibition zone approach; type: cell-based, Bacillus subtilis; conditions: for B. subtilis Diameter of inhibition zone (mm): Gram-positive bacteria; for antimicrobial activity with B. subtilis, in words: authors' grading of Table 2 values, key not given; for B. subtilis % Activity index: gentamicin = 100
A. flavus = test: Antifungal activity, inhibition zone approach; type: cell-based, Aspergillus flavus; conditions: for A. flavus Diameter of inhibition zone (mm): Fungi; for antimicrobial activity with A. flavus, in words: authors' grading of Table 2 values, key not given; for A. flavus % Activity index: ketoconazole = 100
HepG-2 [1] = test: Anti-proliferative activity, SRB colorimetric assay; type: cell-based; conditions: for IC50: Homo sapiens, HepG2, HepG-2 cancer cell line, SRB assay, read-out: Cell lines (IC50 μM) HepG-2; for anti-proliferative activity against HepG-2, in words: authors' grading of Table 1 values, key not given
E. coli = test: Antibacterial activity, inhibition zone approach; type: cell-based, Escherichia coli; conditions: for E. coli Diameter of inhibition zone (mm): Gram-negative bacteria; for antimicrobial activity with E. coli, in words: authors' grading of Table 2 values, key not given; for E. coli % Activity index: gentamicin = 100
MCF-7 = test: Anti-proliferative activity, SRB colorimetric assay; type: cell-based; conditions: for IC50: Homo sapiens, MCF7, MCF-7 cancer cell line, SRB assay, read-out: Cell lines (IC50 μM) MCF-7; for anti-proliferative activity against MCF-7, in words: authors' grading of Table 1 values, key not given
C. albicans = test: Antifungal activity, inhibition zone approach; type: cell-based, Candida albicans; conditions: for C. albicans Diameter of inhibition zone (mm): Fungi; for antimicrobial activity with C. albicans, in words: authors' grading of Table 2 values, key not given; for C. albicans % Activity index: ketoconazole = 100
S. aureus = test: Antibacterial activity, inhibition zone approach; type: cell-based, Staphylococcus aureus; conditions: for S. aureus Diameter of inhibition zone (mm): Gram-positive bacteria; for antimicrobial activity with S. aureus, in words: authors' grading of Table 2 values, key not given; for S. aureus % Activity index: gentamicin = 100
EGFR = EGFR (Homo sapiens, UniProt P00533); test: EGFR inhibitory activity, homogeneous luminescence release assay; type: biochemical; conditions: reference erlotinib; read-out: EGFR inhibition IC50
HepG2 = test: Cell cycle analysis by flow cytometry; type: cell-based; conditions: HepG2 treated with 10b at 13.81 μM; control 36.19%
HepG-2 [2] = test: Apoptosis analysis, FITC Annexin-V/PI kit; type: cell-based; conditions: HepG-2 treated with 10b at 13.81 μM
Description: This was accompanied by significant elevations in the percentage of the AnxV-FITC apoptotic cells in both the early (from 0.36 to 14.52%) and late (from 0.21 to 24.45%) apoptotic phases, compared to the control (Fig. 5 and 6). Accordingly, we can confirm the exact mechanism of the anticancer activity of 10b to be due to the programmed apoptosis pathway.
This was done using the FITC Annexin-V/PI kit.[49]

Chain of EGFR (P00533 25-1210): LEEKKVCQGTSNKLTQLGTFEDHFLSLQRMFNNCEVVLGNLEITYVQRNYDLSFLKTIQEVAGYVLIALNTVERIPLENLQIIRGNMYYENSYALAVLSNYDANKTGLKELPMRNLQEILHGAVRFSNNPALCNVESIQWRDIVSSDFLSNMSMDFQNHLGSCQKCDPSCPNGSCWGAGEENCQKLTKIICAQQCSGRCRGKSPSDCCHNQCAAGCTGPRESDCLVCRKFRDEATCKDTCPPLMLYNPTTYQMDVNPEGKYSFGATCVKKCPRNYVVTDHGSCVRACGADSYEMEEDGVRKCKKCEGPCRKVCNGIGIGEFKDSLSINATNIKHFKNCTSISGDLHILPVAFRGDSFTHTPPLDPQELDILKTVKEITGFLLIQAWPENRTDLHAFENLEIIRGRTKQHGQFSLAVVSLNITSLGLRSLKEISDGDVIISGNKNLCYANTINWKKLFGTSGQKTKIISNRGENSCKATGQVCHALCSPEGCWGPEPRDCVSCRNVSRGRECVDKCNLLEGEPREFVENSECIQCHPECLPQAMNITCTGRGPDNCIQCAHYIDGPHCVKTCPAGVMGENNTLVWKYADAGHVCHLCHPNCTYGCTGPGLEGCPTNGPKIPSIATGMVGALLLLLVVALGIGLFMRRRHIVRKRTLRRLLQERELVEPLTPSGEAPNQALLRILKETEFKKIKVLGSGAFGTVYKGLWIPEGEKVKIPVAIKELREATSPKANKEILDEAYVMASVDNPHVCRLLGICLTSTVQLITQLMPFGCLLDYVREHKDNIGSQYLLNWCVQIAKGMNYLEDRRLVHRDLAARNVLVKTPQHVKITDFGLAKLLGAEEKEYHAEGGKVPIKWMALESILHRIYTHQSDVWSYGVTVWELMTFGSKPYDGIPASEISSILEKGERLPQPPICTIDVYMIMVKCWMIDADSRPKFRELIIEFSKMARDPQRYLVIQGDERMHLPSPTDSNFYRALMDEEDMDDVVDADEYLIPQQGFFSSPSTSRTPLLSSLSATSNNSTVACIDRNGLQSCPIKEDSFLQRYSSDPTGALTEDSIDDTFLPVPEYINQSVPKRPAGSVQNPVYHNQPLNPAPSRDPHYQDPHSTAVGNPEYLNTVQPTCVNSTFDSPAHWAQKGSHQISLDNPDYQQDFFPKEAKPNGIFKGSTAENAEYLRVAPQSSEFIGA
Chain of VEGFR-2 (P35968 20-1356): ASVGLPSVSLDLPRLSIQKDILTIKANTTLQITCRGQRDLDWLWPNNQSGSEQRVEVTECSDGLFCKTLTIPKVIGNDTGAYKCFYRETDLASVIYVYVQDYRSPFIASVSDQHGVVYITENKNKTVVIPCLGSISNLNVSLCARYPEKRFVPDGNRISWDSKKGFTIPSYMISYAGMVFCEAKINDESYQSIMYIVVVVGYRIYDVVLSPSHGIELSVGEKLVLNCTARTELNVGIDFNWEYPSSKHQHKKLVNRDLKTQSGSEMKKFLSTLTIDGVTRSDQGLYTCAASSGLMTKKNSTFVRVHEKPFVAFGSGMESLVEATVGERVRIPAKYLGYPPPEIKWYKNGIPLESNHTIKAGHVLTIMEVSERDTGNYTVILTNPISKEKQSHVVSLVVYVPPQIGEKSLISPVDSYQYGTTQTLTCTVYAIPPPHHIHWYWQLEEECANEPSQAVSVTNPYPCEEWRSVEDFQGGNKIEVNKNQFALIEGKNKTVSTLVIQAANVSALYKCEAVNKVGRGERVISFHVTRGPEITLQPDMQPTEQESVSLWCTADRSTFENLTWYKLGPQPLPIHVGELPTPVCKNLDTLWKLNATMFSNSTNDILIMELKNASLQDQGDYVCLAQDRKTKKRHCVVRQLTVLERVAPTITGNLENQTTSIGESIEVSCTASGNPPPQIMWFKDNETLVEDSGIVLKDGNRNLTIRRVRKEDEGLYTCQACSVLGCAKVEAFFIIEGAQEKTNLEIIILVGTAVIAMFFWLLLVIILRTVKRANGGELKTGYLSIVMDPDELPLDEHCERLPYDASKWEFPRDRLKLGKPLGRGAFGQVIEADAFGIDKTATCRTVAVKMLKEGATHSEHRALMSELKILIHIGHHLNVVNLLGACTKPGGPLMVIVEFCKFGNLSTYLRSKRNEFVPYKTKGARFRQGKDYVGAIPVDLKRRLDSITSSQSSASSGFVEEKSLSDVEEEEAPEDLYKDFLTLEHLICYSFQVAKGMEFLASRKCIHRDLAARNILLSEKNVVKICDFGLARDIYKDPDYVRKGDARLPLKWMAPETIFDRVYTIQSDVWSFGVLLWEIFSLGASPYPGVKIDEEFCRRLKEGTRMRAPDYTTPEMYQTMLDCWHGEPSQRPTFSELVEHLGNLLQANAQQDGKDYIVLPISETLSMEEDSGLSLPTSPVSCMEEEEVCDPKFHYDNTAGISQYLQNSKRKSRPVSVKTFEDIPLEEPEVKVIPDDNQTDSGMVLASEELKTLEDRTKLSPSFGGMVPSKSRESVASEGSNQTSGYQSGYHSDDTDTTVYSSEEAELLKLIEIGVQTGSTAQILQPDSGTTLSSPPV

Oc1ccc(C2=NNC(c3cccs3)C2)cc1 (stereo not shown) [7a, 4-(5-(thiophen-2-yl)-4,5-dihydro-1H-pyrazol-3-yl)phenol]
IC50 (VEGFR-2): 509 nM
P. aeuroginosa Diameter of inhibition zone (mm) (P. aeuroginosa): 17 mm
antimicrobial activity with P. aeuroginosa, in words (P. aeuroginosa): very strong
P. aeuroginosa % Activity index (P. aeuroginosa): 89.5%
B. subtilis Diameter of inhibition zone (mm) (B. subtilis): 19 mm
antimicrobial activity with B. subtilis, in words (B. subtilis): very strong
B. subtilis % Activity index (B. subtilis): 86.4%
melting point: 100 to 102 °C
A. flavus Diameter of inhibition zone (mm) (A. flavus): 18 mm
antimicrobial activity with A. flavus, in words (A. flavus): very strong
A. flavus % Activity index (A. flavus): 69.2%
IC50 (HepG-2 [1]): 8.13 ± 0.6 µM
anti-proliferative activity against HepG-2, in words (HepG-2 [1]): very strong
E. coli Diameter of inhibition zone (mm) (E. coli): 12 mm
antimicrobial activity with E. coli, in words (E. coli): very strong
E. coli % Activity index (E. coli): 57.1%
IC50 (MCF-7): 3.54 ± 0.2 µM
anti-proliferative activity against MCF-7, in words (MCF-7): very strong
C. albicans Diameter of inhibition zone (mm) (C. albicans): 23 mm
antimicrobial activity with C. albicans, in words (C. albicans): very strong
C. albicans % Activity index (C. albicans): 82.1%
S. aureus Diameter of inhibition zone (mm) (S. aureus): 15 mm
antimicrobial activity with S. aureus, in words (S. aureus): very strong
S. aureus % Activity index (S. aureus): 83.3%
IC50 (EGFR): 266 nM

NC(=S)n1nc(-c2ccc(Cl)c(Cl)c2)cc1-c1cccs1 [10b, 3-(3,4-dichlorophenyl)-5-(thiophen-2-yl)-1H-pyrazole-1-carbothioamide]
IC50 (VEGFR-2): 141 nM
P. aeuroginosa Diameter of inhibition zone (mm) (P. aeuroginosa): 13 mm
antimicrobial activity with P. aeuroginosa, in words (P. aeuroginosa): very strong
P. aeuroginosa % Activity index (P. aeuroginosa): 68.4%
B. subtilis Diameter of inhibition zone (mm) (B. subtilis): 17 mm
antimicrobial activity with B. subtilis, in words (B. subtilis): very strong
B. subtilis % Activity index (B. subtilis): 77.3%
A. flavus Diameter of inhibition zone (mm) (A. flavus): 14 mm
antimicrobial activity with A. flavus, in words (A. flavus): moderate
A. flavus % Activity index (A. flavus): 53.8%
fold change of S phase population compared to control (HepG2): 1.37 fold
IC50 (HepG-2 [1]): 13.8 ± 1.1 µM
anti-proliferative activity against HepG-2, in words (HepG-2 [1]): strong
AnxV-FITC apoptotic cells, late apoptotic phase (HepG-2 [2]; control 0.21%): 24.45%
total apoptosis percentage (HepG-2 [2]; control 1.75): 44.26%
AnxV-FITC apoptotic cells, early apoptotic phase (HepG-2 [2]; control […]): 14.52%
E. coli Diameter of inhibition zone (mm) (E. coli): 9 mm
antimicrobial activity with E. coli, in words (E. coli): moderate
E. coli % Activity index (E. coli): 42.8%
IC50 (MCF-7): 23.2 ± 1.8 µM
anti-proliferative activity against MCF-7, in words (MCF-7): moderate
C. albicans Diameter of inhibition zone (mm) (C. albicans): 20 mm
antimicrobial activity with C. albicans, in words (C. albicans): very strong
C. albicans % Activity index (C. albicans): 71.4%
S. aureus Diameter of inhibition zone (mm) (S. aureus): 12 mm
antimicrobial activity with S. aureus, in words (S. aureus): very strong
S. aureus % Activity index (S. aureus): 66.7%
IC50 (EGFR): 161 nM

CCOC(=O)CN1N=C(c2ccc(O)cc2)CC1c1cccs1 (stereo not shown) [15a, ethyl 2-(3-(4-hydroxyphenyl)-5-(thiophen-2-yl)-4,5-dihydro-1H-pyrazol-1-yl)acetate]
IC50 (VEGFR-2): 1140 nM
P. aeuroginosa Diameter of inhibition zone (mm) (P. aeuroginosa): 14 mm
antimicrobial activity with P. aeuroginosa, in words (P. aeuroginosa): strong
P. aeuroginosa % Activity index (P. aeuroginosa): 73.7%
B. subtilis Diameter of inhibition zone (mm) (B. subtilis): 15 mm
antimicrobial activity with B. subtilis, in words (B. subtilis): strong
B. subtilis % Activity index (B. subtilis): 68.2%
melting point: 65 °C
A. flavus Diameter of inhibition zone (mm) (A. flavus): 15 mm
antimicrobial activity with A. flavus, in words (A. flavus): moderate
A. flavus % Activity index (A. flavus): 57.7%
IC50 (HepG-2 [1]): 21.4 ± 1.5 µM
anti-proliferative activity against HepG-2, in words (HepG-2 [1]): moderate
E. coli Diameter of inhibition zone (mm) (E. coli): 9 mm
antimicrobial activity with E. coli, in words (E. coli): moderate
E. coli % Activity index (E. coli): 42.8%
IC50 (MCF-7): 9.48 ± 0.7 µM
anti-proliferative activity against MCF-7, in words (MCF-7): very strong
C. albicans Diameter of inhibition zone (mm) (C. albicans): 18 mm
antimicrobial activity with C. albicans, in words (C. albicans): strong
C. albicans % Activity index (C. albicans): 64.3%
S. aureus Diameter of inhibition zone (mm) (S. aureus): 10 mm
antimicrobial activity with S. aureus, in words (S. aureus): moderate
S. aureus % Activity index (S. aureus): 55.5%
IC50 (EGFR): 894 nM

O=C(SC(=S)N1N=C(c2ccc(O)cc2)CC1c1cccs1)c1ccccc1 (stereo not shown) [18a, Benzoic 3-(4-hydroxyphenyl)-5-(thiophen-2-yl)-4,5-dihydro-1H-pyrazole-1-carbothioic thioanhydride]
IC50 (VEGFR-2): 344 nM
P. aeuroginosa Diameter of inhibition zone (mm) (P. aeuroginosa): 15 mm
antimicrobial activity with P. aeuroginosa, in words (P. aeuroginosa): very strong
P. aeuroginosa % Activity index (P. aeuroginosa): 78.9%
B. subtilis Diameter of inhibition zone (mm) (B. subtilis): 17 mm
antimicrobial activity with B. subtilis, in words (B. subtilis): very strong
B. subtilis % Activity index (B. subtilis): 77.3%
melting point: 240 °C
A. flavus Diameter of inhibition zone (mm) (A. flavus): 16 mm
antimicrobial activity with A. flavus, in words (A. flavus): very strong
A. flavus % Activity index (A. flavus): 61.5%
IC50 (HepG-2 [1]): 12.9 ± 1 µM
anti-proliferative activity against HepG-2, in words (HepG-2 [1]): strong
E. coli Diameter of inhibition zone (mm) (E. coli): 10 mm
antimicrobial activity with E. coli, in words (E. coli): moderate
E. coli % Activity index (E. coli): 47.6%
IC50 (MCF-7): 6.92 ± 0.5 µM
anti-proliferative activity against MCF-7, in words (MCF-7): very strong
C. albicans Diameter of inhibition zone (mm) (C. albicans): 20 mm
antimicrobial activity with C. albicans, in words (C. albicans): very strong
C. albicans % Activity index (C. albicans): 71.4%
S. aureus Diameter of inhibition zone (mm) (S. aureus): 13 mm
antimicrobial activity with S. aureus, in words (S. aureus): very strong
S. aureus % Activity index (S. aureus): 72.2%
IC50 (EGFR): 436 nM
